Consider 37 compounds from ChEMBL document CHEMBL1156829 (Proc Natl Acad Sci U S A, 2008).

Some results are limits rather than exact numbers.

Data set [1] has as its system Plasmodium falciparum. Put plainly: NOVARTIS: Inhibition of Plasmodium falciparum 3D7 (drug-susceptible) proliferation in erythrocyte-based infection assay. The data set is classed as functional, organism-based. To be noted: Plasmodium falciparum, 3D7.
The subject of data set [2] is Plasmodium falciparum. Put plainly: NOVARTIS: Inhibition of Plasmodium falciparum W2 (drug-resistant) proliferation in erythrocyte-based infection assay. The class given is functional, organism-based. To be noted: Plasmodium falciparum, W2; read-out: EC50.
Data set [3] can be described thus: NOVARTIS: Cytotoxicity against human hepatocellular carcinoma cell line (Huh7). The data set is classed as toxicity, cell-based, Huh-7. Particulars: Huh7 cells (hepatocellular carcinoma cell line).

Regarding `CCN(CC)CCNc1ccnc2cc(Cl)ccc12`, the values for the 50% effective concentration (EC50) with Plasmodium falciparum [1] and in the data set on Plasmodium falciparum [2] were 7.16 nM and 6.01 nM, respectively. The CC50 (as a rule, the concentration that lowers cell viability or growth by half) in data set [3] was found to be 29800 nM.

`CCOC(=O)c1cn(CC)c2cc(N(C)CCc3ccc(OC)c(OC)c3)c(F)cc2c1=O`: the concentration for a half-maximal effect (EC50) (in general, the concentration needed to bring the measured effect to its halfway point) in the data set with Plasmodium falciparum [1] amounted to 103 nM; with Plasmodium falciparum [2], 26.7 nM. Moreover, the CC50 in data set [3] is above 100000 nM.

For `COc1cc(NC(C)CCCN(Cc2ccc(F)cc2)C(=O)C(c2ccccc2)c2ccccc2)c2ncccc2c1` (stereo unspecified), the EC50 was above 1090 nM in the data set with Plasmodium falciparum [1] and below 0.572 nM with Plasmodium falciparum [2]. The same compound came in with a half-maximal cytotoxic concentration (CC50) in data set [3] above 3470 nM.

Take `CCc1ccc(C(=O)N(CCc2ccccc2)C(CC)c2nc3ccccc3c(=O)n2-c2ccccc2OC)cc1` (stereo unspecified): the EC50 in the data set on Plasmodium falciparum [1] turned out to be 389 nM; with Plasmodium falciparum [2], 1.5 nM. Also, in data set [3], the CC50 was above 9700 nM.

`O=C(Cc1c(F)cccc1Cl)Nc1cc(C(=O)N2CCN(Cc3ccccc3)CC2)ccc1N1CC2CC(C1)c1cccc(=O)n1C2` (stereo unspecified): the EC50 was determined as 67.2 nM with Plasmodium falciparum [1] and 30 nM with Plasmodium falciparum [2]. Also, the CC50 in data set [3] is above 100000 nM.

`CCOC(=O)c1c(NC(=O)c2ccccc2)sc2c(O)c(CN(CC)CC)ccc12`: the concentration for a half-maximal effect (EC50) with Plasmodium falciparum [1] was determined as 267 nM; in the data set on Plasmodium falciparum [2] it was 8.44 nM. For the same compound, in data set [3], the CC50 is above 46800 nM.

For `CCOC(=O)C1=C(C)NC2=C(C(=O)CC(c3ccc(OC)cc3)C2)C1c1ccccc1F` (stereo unspecified), the 50% effective concentration (EC50) with Plasmodium falciparum [1] is 74.1 nM; in the data set on Plasmodium falciparum [2] it was 27.1 nM. The same compound came in with a CC50 in data set [3] above 100000 nM.

As to `CCOC(=O)C1=C(C)NC2=C(C(=O)CC(c3ccc(OC)c(OC)c3)C2)C1c1ccccc1Br` (stereo unspecified), the EC50 in the data set on Plasmodium falciparum [1] was found to be 73.2 nM; with Plasmodium falciparum [2], 26.7 nM. The compound further displayed a half-maximal cytotoxic concentration (CC50) in data set [3] above 100000 nM.

Regarding `COc1cc(C(=O)NC(C)C)ccc1OC1CCN(CC(c2ccccc2)c2ccccc2)CC1`, the EC50 with Plasmodium falciparum [1] is 74.3 nM; in the data set on Plasmodium falciparum [2] it was 23.6 nM. In data set [3], this compound displayed a CC50 above 100000 nM.

Regarding `CCCOC(=O)C1=C(C)NC2=C(C(=O)CC(c3ccc(OC)cc3)C2)C1c1ccccc1Cl` (stereo unspecified), the EC50 worked out at 27.2 nM with Plasmodium falciparum [1] and 22.1 nM with Plasmodium falciparum [2]. The CC50 in data set [3] is above 100000 nM.

For `COc1ccc(C2CC(=O)C3=C(C2)NC(C)=C(C(=O)OC(C)C)C3c2cccc(Cl)c2Cl)cc1OC` (stereo unspecified), the results for the EC50 with Plasmodium falciparum [1] and in the data set on Plasmodium falciparum [2] were 67.6 nM and 18.1 nM, respectively. Besides, the CC50 in data set [3] is above 87300 nM.

On to `CCCOC(=O)C1=C(C)NC2=C(C(=O)CC(c3ccc(OC)cc3)C2)C1c1ccccc1F` (stereo unspecified), for which the EC50 stood at 55 nM with Plasmodium falciparum [1] and 20.1 nM in the data set with Plasmodium falciparum [2]. The compound further gave a cytotoxic concentration (CC50) in data set [3] above 100000 nM.

Regarding `CCCOC(=O)C1=C(C)NC2=C(C(=O)CC(c3ccc(Cl)cc3)C2)C1c1ccccc1F` (stereo unspecified), the EC50 amounted to 254 nM with Plasmodium falciparum [1] and 18.6 nM with Plasmodium falciparum [2]. Further, the CC50 in data set [3] was above 100000 nM.

In the case of `CC(=O)c1ccc(NC(=O)CSc2nnc3c4c(-c5ccc(F)cc5)csc4ncn23)cc1`, the EC50 with Plasmodium falciparum [1] is above 12500 nM; in the data set with Plasmodium falciparum [2], 23.9 nM. In data set [3], this compound yielded a CC50 above 100000 nM.

As for `COc1ccc(C2CC(=O)C3=C(C2)NC(C)=C(C(=O)OC(C)C)C3c2ccc(F)cc2)cc1` (stereo unspecified), the concentration giving a half-maximal response (EC50) is 83.4 nM with Plasmodium falciparum [1] and 23.2 nM with Plasmodium falciparum [2]. In addition, in data set [3], the CC50 was above 100000 nM.

As for `CCOC(=O)C1=C(C)NC2=C(C(=O)CC(c3ccc(OC)c(OC)c3)C2)C1c1c(F)cccc1Cl` (stereo unspecified), the EC50 in the data set on Plasmodium falciparum [1] is 76.7 nM; with Plasmodium falciparum [2], 23 nM. Further, in data set [3], the CC50 was above 100000 nM.

In the case of `CCCOC(=O)C1=C(C)NC2=C(C(=O)CC(c3ccc(OC)c(OC)c3)C2)C1c1ccc([N+](=O)[O-])cc1` (stereo unspecified), the EC50 in the data set on Plasmodium falciparum [1] came to 25.9 nM; in the data set with Plasmodium falciparum [2] it was 20.5 nM. In data set [3], this compound yielded a half-maximal cytotoxic concentration (CC50) above 100000 nM.

With `CCOC(=O)C1=C(C)NC2=C(C(=O)CC(c3ccc(OC)c(OC)c3)C2)C1c1cccc(Cl)c1Cl` (stereo unspecified), the EC50 in the data set on Plasmodium falciparum [1] is 32.9 nM; in the data set on Plasmodium falciparum [2], 30.5 nM. The compound also registered a CC50 in data set [3] above 100000 nM.

Turning to `CCCCNCCN1CCN(c2ccc3ccccc3c2)C[C@@H]1c1ccccc1`, the EC50 came out at 34.5 nM in the data set on Plasmodium falciparum [1] and 2.45 nM in the data set with Plasmodium falciparum [2]. The same compound registered a CC50 in data set [3] of 8160 nM.

In the case of `COC(=O)C1=C(C)NC(=Cc2cc(C)n(-c3cc(C)ccc3C)c2C)C1=O`, the results for the EC50 in the data set on Plasmodium falciparum [1] and in the data set with Plasmodium falciparum [2] were 9.53 nM and 18.4 nM, respectively. In data set [3], the CC50 was above 100000 nM.

As to `Cc1cc(C(=O)N2CCOc3c(cc(-c4csc5ccccc45)cc3OCCc3ccccn3)C2)n(C)n1`, the results for the concentration giving a half-maximal response (EC50) in the data set on Plasmodium falciparum [1] and in the data set with Plasmodium falciparum [2] were 32.5 nM and 13.9 nM, respectively. The compound also registered a half-maximal cytotoxic concentration (CC50) in data set [3] of 46900 nM.

`COC(=O)c1c(-c2c(Cl)cccc2Cl)noc1/C=C/Nc1ccc(Cl)cc1`: the EC50 was 13.5 nM with Plasmodium falciparum [1] and below 2.95 nM in the data set on Plasmodium falciparum [2]. This compound came in with a CC50 in data set [3] above 10000 nM.

`COc1ccc(C2CC(=O)C3=C(C2)NC(C)=C(C(=O)OC(C)C)C3c2ccccc2Br)cc1` (stereo unspecified): the concentration giving a half-maximal response (EC50) was found to be 62 nM in the data set with Plasmodium falciparum [1] and 28.5 nM with Plasmodium falciparum [2]. The compound also came in with a CC50 in data set [3] above 100000 nM.

Consider `CCOC(=O)C1=C(C)NC2=C(C(=O)CC(c3ccc(OC)c(OC)c3)C2)C1c1ccccc1C` (stereo unspecified), for which the EC50 in the data set with Plasmodium falciparum [1] worked out at 134 nM; in the data set with Plasmodium falciparum [2], 27.4 nM. The CC50 in data set [3] was above 100000 nM.

Turning to `Cc1ccc(-c2c3c(nc4sc(C(=O)Nc5ccc(F)cc5)c(N)c24)CCC3)cc1`, the results for the EC50 in the data set on Plasmodium falciparum [1] and with Plasmodium falciparum [2] were 68.8 nM and 27.2 nM, respectively. The compound further yielded a CC50 in data set [3] above 100000 nM.

With `CN(C)CC(C)(C)CNCc1cc(-c2ccccc2)ccc1O`, the EC50 in the data set on Plasmodium falciparum [1] worked out at 66.1 nM; with Plasmodium falciparum [2], 6.53 nM. Moreover, in data set [3], half-maximal cytotoxicity (CC50) was put at 38000 nM.

`CC(C)CNCc1cc(-c2ccc(F)cc2)ccc1O`: the EC50 with Plasmodium falciparum [1] came to 104 nM; in the data set with Plasmodium falciparum [2] it was 10 nM. This compound also displayed a CC50 in data set [3] of 58600 nM.

As for `CCOC(=O)C(=O)N1c2ccc(OCC)cc2-c2c(ssc2=S)C1(C)C`, the half-maximal effective concentration (EC50) in the data set with Plasmodium falciparum [1] was 252 nM; in the data set on Plasmodium falciparum [2] it was 25.2 nM. The compound also had a CC50 in data set [3] above 100000 nM.

On to `COC(=O)C1=C(C)NC2=C(C(=O)CC(c3ccc(OC)c(OC)c3)C2)C1c1ccccc1F` (stereo unspecified), for which the EC50 in the data set on Plasmodium falciparum [1] worked out at 50.5 nM; in the data set with Plasmodium falciparum [2] it was 30.6 nM. Also, the CC50 in data set [3] is above 100000 nM.

For the compound `CN(Cc1cc(-c2ccc(F)cc2)ccc1O)CC(O)c1ccccc1` (stereo unspecified), the results for the EC50 in the data set on Plasmodium falciparum [1] and in the data set with Plasmodium falciparum [2] were 223 nM and 14.2 nM, respectively. In addition, in data set [3], the CC50 was above 70900 nM.

Turning to `COc1cccc(-c2ccc(O)c(CNCC3CC4C=CC3C43CC3)c2)n1` (stereo unspecified), the EC50 in the data set with Plasmodium falciparum [1] was determined as 153 nM; with Plasmodium falciparum [2] it was 19.9 nM. In data set [3], this compound displayed a CC50 above 85900 nM.

`CCOC(=O)c1c(NC(C)=O)sc2c(O)c(CNC3CCCCC3)ccc12`: the figures for the EC50 with Plasmodium falciparum [1] and with Plasmodium falciparum [2] were 80.5 nM and 21.4 nM, respectively. This compound also returned a cytotoxic concentration (CC50) in data set [3] above 100000 nM.

Take `COc1ccc(OC)c(-c2ccc(O)c(CNCC3(N4CCCCC4)CCCCC3)c2)c1`: the figures for the EC50 in the data set with Plasmodium falciparum [1] and in the data set on Plasmodium falciparum [2] were 43.7 nM and 11.3 nM, respectively. In data set [3], this compound displayed a CC50 of 38000 nM.

For the compound `CN(c1ccc(Br)cc1)S(=O)(=O)c1ccc2[nH]cc(C(=O)N3CCN(c4ccccc4)CC3)c(=O)c2c1`, the EC50 was above 1250 nM in the data set on Plasmodium falciparum [1] and below 2.83 nM in the data set on Plasmodium falciparum [2]. The same compound gave a CC50 in data set [3] above 10000 nM.

Turning to `CCOC(=O)C1=C(C)NC2=C(C(=O)CC(c3ccc(OC)c(OC)c3)C2)C1c1ccccc1F` (stereo unspecified), the figures for the EC50 in the data set on Plasmodium falciparum [1] and with Plasmodium falciparum [2] were 27.6 nM and 26.4 nM, respectively. The same compound registered a CC50 in data set [3] above 100000 nM.

With `Oc1ccc(-c2ccc(F)cc2)cc1CN1CCCCCC1`, the 50% effective concentration (EC50) was 110 nM in the data set with Plasmodium falciparum [1] and 19.6 nM with Plasmodium falciparum [2]. In data set [3], this compound gave a CC50 above 100000 nM.

Consider `CCCOC(=O)C1=C(C)NC2=C(C(=O)CC(c3ccc(OC)cc3)C2)C1c1ccc(Cl)cc1Cl` (stereo unspecified), for which the EC50 with Plasmodium falciparum [1] was 36.9 nM; in the data set with Plasmodium falciparum [2], 16.2 nM. The compound further gave a CC50 in data set [3] above 100000 nM.
